The values below come from US9169252B2 (BRISTOL-MYERS SQUIBB COMPANY, priority 2014, dated 2015).

Experiment [1] concerns the target IRAK4 (Homo sapiens (Human), UniProt Q9NWZ3). The experiment is described as follows: IRAK4 Inhibition Assay. Type of experiment: biochemical. Particulars: IRAK4 Inhibition Assay; ATP 500 μM; read-out: IRAK4 IC50. The essentials: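 IRAK4 combined with fluorescent substrate and compounds, reacted 60 min at room temperature, stopped with 35 mM EDTA. Substrate and phosphorylated product separated electrophoretically on a Caliper LabChip 3000 mobility-shift reader.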

The test system of experiment [2] is TLR2 induced IL-6 in peripheral blood mononuclear cells (PBMCs). As to the kind of experiment: PBMC TLR2 Induced IL-6 Assay. Type of experiment: cell-based, human. Particulars: Homo sapiens, PBMC, PBMC TLR2 Induced IL-6 Assay; lipoteichoic acid stimulation, IL-6 by ELISA; read-out: Cell EC50. The essentials:
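Lipoteichoic acid at 10 µg/ml served as TLR2 stimulus for 5 hours, following a 30-minute compound pretreatment at 37° C. Cells were Ficoll-isolated human PBMCs, 250000 cells/well, cultured in RPMI plus 10% heat-inactivated FCS.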

IRAK4, sequence (Q9NWZ3 whole entry, species assumed): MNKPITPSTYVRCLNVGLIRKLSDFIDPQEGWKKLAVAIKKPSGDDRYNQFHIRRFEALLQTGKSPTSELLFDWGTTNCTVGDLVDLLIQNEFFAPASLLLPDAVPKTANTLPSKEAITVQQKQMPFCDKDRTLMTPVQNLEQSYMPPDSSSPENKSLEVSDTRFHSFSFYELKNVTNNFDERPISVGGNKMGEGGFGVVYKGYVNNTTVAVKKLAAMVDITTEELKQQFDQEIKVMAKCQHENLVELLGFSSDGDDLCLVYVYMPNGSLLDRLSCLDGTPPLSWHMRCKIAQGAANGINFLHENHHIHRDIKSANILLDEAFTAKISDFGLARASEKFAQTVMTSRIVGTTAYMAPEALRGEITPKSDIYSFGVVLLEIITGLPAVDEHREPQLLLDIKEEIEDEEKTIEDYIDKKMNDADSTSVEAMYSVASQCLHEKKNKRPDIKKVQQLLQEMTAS

The IC50 is the concentration at which inhibition is half-maximal. As usually defined, the EC50 is the midpoint of the concentration-response curve. For `CC(C)(O)[C@H](F)CNC(=O)c1cnc(-n2ncc3cc(C#N)cnc32)cc1NC1CCOCC1` [Example 141, (R)-6-(5-cyano-1H-pyrazolo[3,4-b]pyridin-1-yl)-N-(2-fluoro-3-hydroxy-3-methylbutyl)-4-((tetrahydro-2H-pyran-4-yl)amino)nicotinamide], in experiment [1], the half-inhibitory concentration (IC50) amounted to 2.2 nM. Also, the concentration for a half-maximal effect (EC50) in experiment [2] worked out at 87 nM.
The matching figures for `CC(C)Nc1cc(-n2ncc3cncnc32)ncc1C(=O)NC[C@@H](F)C(C)(C)O` [Example 144, (R)—N-(2-fluoro-3-hydroxy-3-methylbutyl)-4-(isopropylamino)-6-(1H-pyrazolo[3,4-d]pyrimidin-1-yl)nicotinamide]: 6.2 nM and 148 nM.
For `CC(C)(O)[C@H](F)CNC(=O)c1cnc(-n2ncc3cc(C#N)cnc32)cc1NC1CCC1` [Example 145, (R)-6-(5-cyano-1H-pyrazolo[3,4-b]pyridin-1-yl)-4-(cyclobutylamino)-N-(2-fluoro-3-hydroxy-3-methylbutyl)nicotinamide], in experiment [1], the IC50 was 4.5 nM. In addition, in experiment [2], the concentration for a half-maximal effect (EC50) turned out to be 61 nM.
As for `CC(C)Nc1cc(-n2ncc3cc(C#N)cnc32)ncc1C(=O)NCCC(C)(C)O` [Example 146, 6-(5-cyano-1H-pyrazolo[3,4-b]pyridin-1-yl)-N-(3-hydroxy-3-methylbutyl)-4-(isopropylamino)nicotinamide], the IC50 in experiment [1] came out at 6.5 nM. In addition, the EC50 in experiment [2] came to 267 nM.
The matching figures for `CC(C)(O)[C@H](F)CNC(=O)c1cnc(-n2ncc3cc(C#N)cnc32)cc1NCC(F)(F)F` [Example 147, (R)-6-(5-cyano-1H-pyrazolo[3,4-b]pyridin-1-yl)-N-(2-fluoro-3-hydroxy-3-methylbutyl)-4-((2,2,2-trifluoroethyl)amino)nicotinamide]: 11.9 nM and 338 nM.
For `CC(C)Nc1cc(-n2ncc3cc(C#N)cnc32)ncc1C(=O)N[C@H]1CC[C@H](C(C)(C)O)CC1` [Example 148, 6-(5-cyano-1H-pyrazolo[3,4-b]pyridin-1-yl)-N-((trans)-4-(2-hydroxypropan-2-yl)cyclohexyl)-4-(isopropylamino)nicotinamide], the IC50 in experiment [1] came out at 1.4 nM. For the same molecule, the EC50 in experiment [2] was found to be 64 nM.
For `CCC(O)(CC)[C@H](F)CNC(=O)c1cnc(-n2ncc3cncnc32)cc1NC(C)C` [Example 149, (R)—N-(3-ethyl-2-fluoro-3-hydroxypentyl)-4-(isopropylamino)-6-(1H-pyrazolo[3,4-d]pyrimidin-1-yl)nicotinamide], in experiment [1], the 50% inhibitory concentration (IC50) was 9.3 nM. Moreover, in experiment [2], the EC50 came to 239 nM.
As for `CC(C)Nc1cc(-n2ncc3cc(Cl)cnc32)ncc1C(=O)N[C@H]1CC[C@H](C(C)(C)O)CC1` [Example 150, 6-(5-chloro-1H-pyrazolo[3,4-b]pyridin-1-yl)-N-((trans)-4-(2-hydroxypropan-2-yl)cyclohexyl)-4-(isopropylamino)nicotinamide], the IC50 in experiment [1] came to 9 nM. The EC50 in experiment [2] is 593 nM.
Take `CC(C)(O)CCNC(=O)c1cnc(-n2ncc3cc(C#N)cnc32)cc1NC1CCOCC1` [Example 151, 6-(5-cyano-1H-pyrazolo[3,4-b]pyridin-1-yl)-N-(3-hydroxy-3-methylbutyl)-4-((tetrahydro-2H-pyran-4-yl)amino)nicotinamide]: the IC50 in experiment [1] was found to be 14.8 nM. Besides, in experiment [2], the EC50 was 443 nM.
With `CNC(=O)[C@H]1CC[C@H](NC(=O)c2cnc(-n3ncc4cc(Cl)cnc43)cc2NC(C)C)CC1` [Example 152, 6-(5-chloro-1H-pyrazolo[3,4-b]pyridin-1-yl)-4-(isopropylamino)-N-((trans)-4-(methylcarbamoyl)cyclohexyl)nicotinamide], in experiment [1], the IC50 stood at 5.6 nM. The EC50 in experiment [2] was 294 nM.
With `CC(C)Nc1cc(-n2ncc3cc(Cl)cnc32)ncc1C(=O)NCCN1CCOCC1` [Example 154, 6-(5-chloro-1H-pyrazolo[3,4-b]pyridin-1-yl)-4-(isopropylamino)-N-(2-morpholinoethyl)nicotinamide], the IC50 in experiment [1] was found to be 12 nM. For the same molecule, in experiment [2], the EC50 came out at 584 nM.
As for `Cc1cnc2c(cnn2-c2cc(NC(C)C)c(C(=O)NC[C@@H](F)C(C)(C)O)cn2)c1` [Example 155, (R)—N-(2-fluoro-3-hydroxy-3-methylbutyl)-4-(isopropylamino)-6-(5-methyl-1H-pyrazolo[3,4-b]pyridin-1-yl)nicotinamide], the IC50 in experiment [1] came out at 7 nM. Moreover, the EC50 in experiment [2] is 164 nM.
On to `CC(C)(O)[C@H](F)CNC(=O)c1cnc(-n2ncc3cc(F)cnc32)cc1NC1CC1` [Example 156, (R)-4-(cyclopropylamino)-6-(5-fluoro-1H-pyrazolo[3,4-b]pyridin-1-yl)-N-(2-fluoro-3-hydroxy-3-methylbutyl)nicotinamide], for which the half-inhibitory concentration (IC50) in experiment [1] is 9.5 nM. In experiment [2], the EC50 came to 231 nM.
Turning to `CC(C)Nc1cc(-n2ncc3cc(F)cnc32)ncc1C(=O)NC[C@@H](F)C(C)(C)O` [Example 157, (R)-6-(5-fluoro-1H-pyrazolo[3,4-b]pyridin-1-yl)-N-(2-fluoro-3-hydroxy-3-methylbutyl)-4-(isopropylamino) nicotinamide], the IC50 in experiment [1] was determined as 5.3 nM. For the same molecule, the EC50 in experiment [2] was determined as 97 nM.
The matching figures for `CC(C)Nc1cc(-n2ncc3cc(Br)cnc32)ncc1C(=O)NC[C@@H](F)C(C)(C)O` [Example 158, (R)-6-(5-Bromo-1H-pyrazolo[3,4-b]pyridin-1-yl)-N-(2-fluoro-3-hydroxy-3-methylbutyl)-4-(isopropylamino)nicotinamide]: 4.2 nM and 127 nM.
As for `CC(C)(O)[C@H](F)CNC(=O)c1cnc(-n2ncc3cc(C#N)cnc32)cc1N[C@H]1CC[C@H](O)CC1` [Example 159, 6-(5-cyano-1H-pyrazolo[3,4-b]pyridin-1-yl)-N—((R)-2-fluoro-3-hydroxy-3-methylbutyl)-4-(((trans)-4-hydroxycyclohexyl)amino)nicotinamide], the IC50 in experiment [1] stood at 2.4 nM. Further, the EC50 in experiment [2] came to 112 nM.
As to `CNC(=O)[C@H]1CC[C@H](NC(=O)c2cnc(-n3ncc4cc(C#N)cnc43)cc2NC(C)C)CC1` [Example 160, 6-(5-cyano-1H-pyrazolo[3,4-b]pyridin-1-yl)-4-(isopropylamino)-N-((trans)-4-(methylcarbamoyl)cyclohexyl)nicotinamide], in experiment [1], the IC50 was 5.8 nM. Moreover, the concentration giving a half-maximal response (EC50) in experiment [2] is 176 nM.
In the same order, the values of `CC(C)Nc1cc(-n2ncc3cc(C#N)cnc32)ncc1C(=O)N[C@H]1CC[C@H](S(C)(=O)=O)CC1` [Example 161, 6-(5-cyano-1H-pyrazolo[3,4-b]pyridin-1-yl)-4-(isopropylamino)-N-((trans)-4-(methylsulfonyl)cyclohexyl)nicotinamide] are 6.8 nM and 253 nM.
On to `[2H]C([2H])([2H])NC(=O)[C@H]1CC[C@H](NC(=O)c2cnc(-n3ncc4cc(C#N)cnc43)cc2NC(C)C)CC1` [Example 162, 6-(5-cyano-1H-pyrazolo[3,4-b]pyridin-1-yl)-4-(isopropylamino)-N-((trans)-4-((^2H3)methylcarbamoyl)cyclohexyl)nicotinamide], for which the IC50 in experiment [1] was determined as 3.8 nM. Moreover, the EC50 in experiment [2] was found to be 129 nM.
`CC(C)(O)[C@H](F)CNC(=O)c1cnc(-n2ncc3cc(C#N)cnc32)cc1NC1CCC(F)CC1` (stereo partly drawn) [Example 163, (R)-6-(5-cyano-1H-pyrazolo[3,4-b]pyridin-1-yl)-N-(2-fluoro-3-hydroxy-3-methylbutyl)-4-((4-fluorocyclohexyl)amino)nicotinamide]: in experiment [1], the IC50 worked out at 3 nM. In experiment [2], the 50% effective concentration (EC50) stood at 81 nM.
